From patent publication US6893846B2, “Primers for use in detecting beta-lactamases” (priority 1998, dated 2005) come the findings set out here.

Assay [1] concerns the target single beta-lactamase in K. pneumoniae cell extracts (Klebsiella pneumoniae, UniProt P0AD64, E235K/G234S). Nature of the assay: Spectrophotometric hydrolysis assay on crude beta-lactamase extracts. The conditions noted are these: K. pneumoniae Pit 82 extract, beta-lactamase pI 8.2; 100 μM substrate.
In assay [2] the target is single beta-lactamase in K. pneumoniae cell extracts (Klebsiella pneumoniae, UniProt P0AD64, G234S). The assay is described as above. The conditions noted are these: K. pneumoniae Pit 100 extract, beta-lactamase pI 7.6; 100 μM substrate.
Assay [3] deals with single beta-lactamase in K. pneumoniae cell extracts (Escherichia coli, UniProt P62593, E102K/R162S). Described as above. As to conditions: K. pneumoniae Pit 16 extract, beta-lactamase pI 5.6; 100 μM substrate.
Assay [4] concerns the target single beta-lactamase in P. mirabilis cell extracts (Escherichia coli, UniProt P62593, E102K/R162S). The description is as above. As to conditions: P. mirabilis Pit 85 extract, beta-lactamase pI 5.6; 100 μM substrate.
For a further assay, the system named is P. mirabilis. Nature of the assay: Agar dilution MIC, South African isolates. Type of assay: cell-based, Proteus mirabilis. The conditions noted are these: 4 strains, tzp with tazobactam 4 μg/ml. Put shortly:
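Clinical isolates from South African hospitals, intermediate or resistant to cefotaxime or ceftazidime and lacking inducible beta-lactamases, were tested by NCCLS M7-T2 agar dilution. Quality-control strains E. coli ATCC 25922 and 35218, P. aeruginosa ATCC 27853 and S. aureus ATCC 29213 were run alongside. Results were interpreted by NCCLS criteria.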
A general note: Agar dilution tests growth on a series of plates holding different concentrations.

The structures appear in SMILES notation.

On to `CO/N=C(\C(=O)N[C@@H]1C(=O)N2C(C(=O)O)=C(COC(C)=O)CS[C@H]12)c1csc(N)n1` [cefotaxime], for which the Hydrolysis is reported as 11 nmol of substrate hydrolyzed/m in assay [1], 11 nmol of substrate hydrolyzed/m in assay [2], 4 nmol of substrate hydrolyzed/m in assay [3] and 5 nmol of substrate hydrolyzed/m in assay [4]. Also, the MIC range in the assay with P. mirabilis is 0.25 to 0.5 µg/mL.
